Earlier results on two compounds are cited in patent US8735388B2, “Heterocyclic compounds with affinity to muscarinic receptors” (Abbvie B. V. A., priority 2007, dated 2014).

Data set [1] addresses T1, Muscarine M2 (GPCR-A-MA-ACH M2) (Homo sapiens, UniProt P08172).
T1 construct: expressed in transfected cells; host or cells: CHO cells
T1 sequence (P08172 1-466): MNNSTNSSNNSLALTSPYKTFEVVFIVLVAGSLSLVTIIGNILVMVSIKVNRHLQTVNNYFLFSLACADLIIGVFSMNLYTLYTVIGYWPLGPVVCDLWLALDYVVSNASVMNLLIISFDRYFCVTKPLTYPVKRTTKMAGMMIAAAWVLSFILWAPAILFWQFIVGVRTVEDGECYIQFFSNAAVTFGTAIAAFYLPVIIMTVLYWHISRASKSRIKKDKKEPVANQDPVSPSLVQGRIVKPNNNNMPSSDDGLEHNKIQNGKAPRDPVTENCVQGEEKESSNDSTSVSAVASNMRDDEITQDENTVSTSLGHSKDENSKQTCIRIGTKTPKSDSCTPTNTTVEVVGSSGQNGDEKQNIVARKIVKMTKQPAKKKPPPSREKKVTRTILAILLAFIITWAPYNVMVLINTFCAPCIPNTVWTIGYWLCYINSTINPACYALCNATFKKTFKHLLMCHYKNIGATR
To be noted: read-out: Ligand Kd; cited from earlier work.

Data set [2] has as its target T2, Muscarine M4 (GPCR-A-MA-ACH M4) (Homo sapiens, UniProt P08173).
T2 construct: expressed in transfected cells; host or cells: CHO cells
T2 sequence (P08173 1-479): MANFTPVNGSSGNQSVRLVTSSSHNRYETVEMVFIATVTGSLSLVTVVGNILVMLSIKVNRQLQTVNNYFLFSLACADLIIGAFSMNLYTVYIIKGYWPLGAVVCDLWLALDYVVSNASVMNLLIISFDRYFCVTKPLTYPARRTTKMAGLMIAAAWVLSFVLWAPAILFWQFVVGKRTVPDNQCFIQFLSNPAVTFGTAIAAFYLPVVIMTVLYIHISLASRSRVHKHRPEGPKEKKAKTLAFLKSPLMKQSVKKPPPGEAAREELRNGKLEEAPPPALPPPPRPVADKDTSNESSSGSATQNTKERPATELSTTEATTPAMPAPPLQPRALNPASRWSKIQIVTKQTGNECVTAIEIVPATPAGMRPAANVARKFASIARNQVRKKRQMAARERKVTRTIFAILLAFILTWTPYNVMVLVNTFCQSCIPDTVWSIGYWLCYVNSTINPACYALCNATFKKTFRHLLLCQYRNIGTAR
Particulars: read-out: Ligand Kd; cited from earlier work.

For `CCCN(CCC)CC1CCCCN1CCNC(=O)N1c2ccccc2C(=O)Nc2cccnc21` (centres unmarked) [Compound 3H-AFDX384, 3H-AFDX384], the dissociation constant (Kd) in data set [1] is 4.3 nM.

In the case of 3H-Oxotremorine, the Kd in data set [2] was 4.5 nM.

One may read the Kd as a measure of binding affinity in units of concentration.
